Laboratory results from patent publication US9169247B2, “Tetrahydro-beta-carboline derivatives, synthesis and use thereof” (Southern Research Institute, priority 2009, dated 2015).
Like-named read-outs stand apart in the source and are kept apart here.

Experiments:
Test in all cases: Growth assay (Cell Titer Glo)
Type in all cases: cell-based
786-0 = conditions: Homo sapiens; 786-0, renal
Method: (§1) All human tumor cell lines were obtained from ATCC and grown under standard cell culture conditions at 37° C. in a humidified atmosphere with 5% CO2. Cells were grown in RPMI 1640 supplemented with 5% fetal bovine serum 2 mM glutamine, 100 units/ml penicillin, 100 units/ml streptomycin, and 0.25 μg/ml amphotericin. Cells were harvested at 70 to 90% confluence with trypsin/EDTA and used immediately Cell count and viability was determined by Trypan blue staining followed by hemocytometry. Only cultures displaying >95% cell viability were used for experiments. HMEC were grown according to the specifications from the supplier (Lonzo).
(§2) Tissue culture microtiter 96-well plates were seeded with cells at a density of 5,000 cells/well. The plates were incubated for 18-24 hours prior to any treatment. All test compounds were solubilized in 100% DMSO and diluted with media to obtain a final DMSO concentration of 0.1%. Cell viability was measured 72 hours after treatment by the Cell Titer Glo Assay (Promega), which is a luminescent assay that is an indicator of live cells as a function of metabolic activity and ATP content. The assay was performed according to manufacturer's specifications. Luminescence was measured by a Perkin Elmer Victor® multi-label plate reader.^6
(§3) Dose response curves were analyzed using Prism™ 4 software (GraphPad) to calculate IC50 values using a four parameter logistic equation.

ACHN = conditions: Homo sapiens, renal
Method: as §1, §2, §3

CCFR-CEM = conditions: Homo sapiens, hematopoietic
Method: as §1, §2, §3

DU-145 = conditions: Homo sapiens; DU-145, prostate
Method: as §1, §2, §3

EKVX = conditions: Homo sapiens, lung
Method: as §1, §2, §3

HCT-116 = conditions: Homo sapiens; HCT-116, colon
Method: as §1, §2, §3

HCT-15 = conditions: Homo sapiens; HCT-15, colon
Method: as §1, §2, §3

HL-60(TB) = conditions: Homo sapiens, hematopoietic
Method: as §1, §2, §3

HOP-62 = conditions: Homo sapiens; HOP-62, lung
Method: as §1, §2, §3

IGROVI = conditions: Homo sapiens; IGROVI / IGROV-1, ovarian
Method: as §1, §2, §3

KM12 = conditions: Homo sapiens; KM12, colon
Method: as §1, §2, §3

M14 = conditions: Homo sapiens; M14, melanoma
Method: as §1, §2, §3

MALME-3M = conditions: Homo sapiens, melanoma
Method: as §1, §2, §3

MOLT-4 = conditions: Homo sapiens; MOLT-4, hematopoietic
Method: as §1, §2, §3

NCI-ADR-RES = conditions: Homo sapiens, multi-drug resistant
Method: as §1, §2, §3

NCI-H322M = conditions: Homo sapiens, lung
Method: as §1, §2, §3

NCI-H460 = conditions: Homo sapiens; NCI-H460, lung
Method: as §1, §2, §3

OVCAR-4 = conditions: Homo sapiens; OVCAR-4, ovarian
Method: as §1, §2, §3

OVCAR-5 = conditions: Homo sapiens; OVCAR-5, ovarian
Method: as §1, §2, §3

OVCAR-8 = conditions: Homo sapiens; OVCAR-8, ovarian
Method: as §1, §2, §3

PC-3 = conditions: Homo sapiens; PC-3, prostate
Method: as §1, §2, §3

RPMI-8226 = conditions: Homo sapiens; RPMI-8226, hematopoietic
Method: as §1, §2, §3

RXF-393 = conditions: Homo sapiens; RXF-393, renal
Method: as §1, §2, §3

SF-268 = conditions: Homo sapiens; SF-268, CNS
Method: as §1, §2, §3

SF-539 = conditions: Homo sapiens; SF-539, CNS
Method: as §1, §2, §3

SK-MEL-28 = conditions: Homo sapiens
Method: as §1, §2, §3

SKOV-3 = conditions: Homo sapiens; SKOV-3 / SK-OV-3, ovarian
Method: as §1, §2, §3

SN12C = conditions: Homo sapiens, renal
Method: as §1, §2, §3

SNB-19 = conditions: Homo sapiens; SNB-19, CNS
Method: as §1, §2, §3

SNB-75 = conditions: Homo sapiens; SNB-75, CNS
Method: as §1, §2, §3

SR = conditions: Homo sapiens, hematopoietic
Method: as §1, §2, §3

SW-620 = conditions: Homo sapiens; SW-620, colon
Method: as §1, §2, §3

T-47D = conditions: Homo sapiens, T47D, breast
Method: as §1, §2, §3

TK-10 = conditions: Homo sapiens; TK-10, renal
Method: as §1, §2, §3

U251 = conditions: Homo sapiens, U-251; U251, CNS
Method: as §1, §2, §3

UACC-257 = conditions: Homo sapiens; UACC-257, melanoma
Method: as §1, §2, §3

UACC-62 = conditions: Homo sapiens; UACC-62, melanoma
Method: as §1, §2, §3

UO-31 = conditions: Homo sapiens; UO-31, renal
Method: as §1, §2, §3

[1] = test system: human MDA-MB-231 breast tumor cells; conditions: Homo sapiens
Method: as §1, §2, §3

Structure (SMILES) | IC50 (786-0) | IC50 (ACHN) | IC50 (CCFR-CEM) | IC50 (DU-145) | IC50 (EKVX) | IC50 (HCT-116) | IC50 (HCT-15) | IC50 (HL-60(TB)) | IC50 (HOP-62) | IC50 (IGROVI) | IC50 (KM12) | IC50 (M14) | IC50 (MALME-3M) | IC50 (MOLT-4) | IC50 (NCI-ADR-RES) | IC50 (NCI-H322M) | IC50 (NCI-H460) | IC50 (OVCAR-4) | IC50 (OVCAR-5) | IC50 (OVCAR-8) | also measured
COC(=O)[C@H]1Cc2c([nH]c3ccccc23)[C@H](c2cc(OC)ccc2OC)N1C(=O)CCl [Compound 2f, Methyl (1S,3R)-1-(2,5-dimethoxyphenyl)-2-(2-chloroacetyl)-2,3,4,9-tetrahydro-1H-β-carboline-3-carboxylate] | 32 nM | 1.3 nM | < 6 nM | 232 nM | 14 nM | > 10000 nM | > 10000 nM | 17 nM | 20 nM | 10 nM | 1370 nM | 485 nM | 132 nM | 161 nM | 23 nM | 2460 nM | > 10000 nM | 15 nM | 1000 nM | 68 nM | IC50 (PC-3): 192 nM; IC50 (RPMI-8226): 17 nM; IC50 (RXF-393): 3 nM; IC50 (SF-268): 690 nM; IC50 (SF-539): 34 nM; IC50 (SK-MEL-28): 485 nM; IC50 (SKOV-3): 60 nM; IC50 (SN12C): 375 nM; IC50 (SNB-19): 131 nM; IC50 (SNB-75): 63 nM; IC50 (SR): < 7 nM; IC50 (SW-620): 3310 nM; IC50 (T-47D): 973 nM; IC50 (TK-10): 78 nM; IC50 (U251): 259 nM; IC50 (UACC-257): 5320 nM; IC50 (UACC-62): 119 nM; IC50 (UO-31): < 9 nM; IC50 ([1]; MDA-MB-231, 72 h, MDA-MB-231 breast, 72 h, Tables 3-5, read-out: IC50 value, μM, growth): 0.006 µM
COC(=O)[C@H]1Cc2c([nH]c3ccccc23)[C@H](c2ccc(Cl)cc2Cl)N1C(=O)CCl [Compound 2j, (1S,3R) Methyl 1-(2,4-dichlorophenyl)-2-(2-chloroacetyl)-2,3,4,9-tetrahydro-1H-β-carboline-3-carboxylate] | 20 nM | 10 nM | 10 nM | > 3000 nM | 20 nM | > 3000 nM | > 3000 nM | 40 nM | 200 nM | 20 nM | 630 nM | 2260 nM | > 3000 nM | 130 nM | 20 nM | > 3000 nM | < 1 nM | 50 nM | 490 nM | 50 nM | IC50 (PC-3): 340 nM; IC50 (RPMI-8226): 80 nM; IC50 (RXF-393): 15 nM; IC50 (SF-268): 100 nM; IC50 (SF-539): 160 nM; IC50 (SK-MEL-28): 1040 nM; IC50 (SKOV-3): 320 nM; IC50 (SN12C): > 3000 nM; IC50 (SNB-19): 1040 nM; IC50 (SNB-75): 100 nM; IC50 (SR): 8 nM; IC50 (SW-620): 2750 nM; IC50 (T-47D): 120 nM; IC50 (TK-10): 200 nM; IC50 (U251): 1880 nM; IC50 (UACC-257): > 3000 nM; IC50 (UACC-62): 290 nM; IC50 (UO-31): 5 nM; inhibition at 10 µM ([1]; MDA-MB-231, MDA-MB-231, 10 μM, mean +/− spread): 98%; IC50 ([1]; MDA-MB-231, MDA-MB-231, Tables 1 and 2, read-out: Growth Inhibition IC50, μM (95% CI)): 0.07 µM
